Source: PubChem BioAssay AID256 (DTP/NCI, 2004)
“And” between values parts separate entries of the source, which are not always exact repeats. Equal values may be shown once. Inconclusive results and toxic doses are left out. Rule for the calls: active = survival T/C of 150% or more; inactive = T/C below 125% in these data.

Tested on: CD2F1 mice, L1210 leukemia ip, survival T/C
Test: NCI In Vivo Anticancer Drug Screen. Data for tumor model L1210 Leukemia (intraperitoneal) in CD2F1 (CDF1) mice
Settings: higher = longer survival
Procedure, shortened: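 Tumor-bearing mice (transplanted tumor) were split into treated and vehicle control groups, and the measured endpoint of each treated group was divided by that of its vehicle controls.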

[1] = endpoint: mean survival time, dose: 100.0 mg/kg/injection, schedule: Q01DX009 (ip), vehicle: saline with Tween-80
[2] = endpoint: mean survival time, dose: 200.0 mg/kg/injection, schedule: Q01DX009 (ip), vehicle: saline with Tween-80
[3] = endpoint: mean survival time, dose: 100.0 mg/kg/injection, schedule: Q01DX001 (ip), vehicle: saline
[4] = endpoint: mean survival time, dose: 400.0 mg/kg/injection, schedule: Q01DX009 (ip), vehicle: saline with Tween-80
[5] = endpoint: mean survival time, dose: 50.0 mg/kg/injection, schedule: Q01DX009 (ip), vehicle: saline with Tween-80
[6] = endpoint: mean survival time, dose: 100.0 mg/kg/injection, schedule: Q04DX002 (ip), vehicle: saline with Tween-80

Measured: T/C

O=c1[nH]cnc2c1nc(N1CCCC1)n2C1OC(CO)C(O)C1O (stereo not drawn)
inactive: endpoint: mean survival time, dose: 12.5 mg/kg/injection, schedule: Q01DX005 (ip), vehicle: distilled water + Tween-80 102 % of control | endpoint: mean survival time, dose: 25.0 mg/kg/injection, schedule: Q01DX005 (ip), vehicle: distilled water + Tween-80 98 % of control | endpoint: mean survival time, dose: 50.0 mg/kg/injection, schedule: Q01DX005 (ip), vehicle: distilled water + Tween-80 100 % of control | endpoint: mean survival time, dose: 100.0 mg/kg/injection, schedule: Q01DX005 (ip), vehicle: distilled water + Tween-80 102 % of control

Cc1ccc([N+](=O)[O-])c(N)n1
inactive: [1] 96 % of control | endpoint: mean survival time, dose: 100.0 mg/kg/injection, schedule: Q04DX003 (ip), vehicle: saline with Tween-80 98 % of control | [2] 86 % of control | endpoint: mean survival time, dose: 200.0 mg/kg/injection, schedule: Q04DX003 (ip), vehicle: saline with Tween-80 98 % of control | endpoint: mean survival time, dose: 400.0 mg/kg/injection, schedule: Q04DX003 (ip), vehicle: saline with Tween-80 100 % of control

COc1cc(CNCc2ccccc2)ccc1O
inactive: endpoint: mean survival time, dose: 75.0 mg/kg/injection, schedule: Q01DX001 (ip), vehicle: other 90 % of control | endpoint: mean survival time, dose: 150.0 mg/kg/injection, schedule: Q01DX001 (ip), vehicle: other 93 % of control | endpoint: mean survival time, dose: 300.0 mg/kg/injection, schedule: Q01DX001 (ip), vehicle: other 95 % of control

O=S1(=O)CCCC1C(O)c1ccccc1 (stereo not drawn)
inactive: endpoint: mean survival time, dose: 100.0 mg/kg/injection, schedule: Q04DX003 (ip), vehicle: other 100 % of control | endpoint: mean survival time, dose: 200.0 mg/kg/injection, schedule: Q04DX003 (ip), vehicle: other 95 % of control | endpoint: mean survival time, dose: 400.0 mg/kg/injection, schedule: Q04DX003 (ip), vehicle: other 95 % of control

CN=C(c1ccccc1)C1(O)CC2CCC1C2 (stereo not drawn)
inactive: [3] 101 % of control | endpoint: mean survival time, dose: 200.0 mg/kg/injection, schedule: Q01DX001 (ip), vehicle: saline 98 % of control | endpoint: mean survival time, dose: 400.0 mg/kg/injection, schedule: Q01DX001 (ip), vehicle: saline 101 % of control

CC(=O)NS(=O)(=O)c1ccc(N=Cc2ccc3c(c2)OCO3)cc1
inactive: [1] 100 % of control | [2] 95 % of control | [4] 94 % of control

COc1cc(Cl)ccc1NC(=O)Nc1ccc(CCO)cc1
inactive: [5] 93 % of control | [1] 93 % of control

CCOC(=O)c1cnc(SCc2ccccc2)nc1Nc1ccccc1
inactive: endpoint: mean survival time, dose: 100.0 mg/kg/injection, schedule: Q01DX001 (ip), vehicle: saline with Tween-80 93 % of control | endpoint: mean survival time, dose: 200.0 mg/kg/injection, schedule: Q01DX001 (ip), vehicle: saline with Tween-80 88 % of control | endpoint: mean survival time, dose: 400.0 mg/kg/injection, schedule: Q01DX001 (ip), vehicle: saline with Tween-80 88 % of control

CC(C)(C)CC(C)(C)c1ccc(Oc2ccc([N+](=O)[O-])cc2S(=O)(=O)O)cc1
inactive: endpoint: mean survival time, dose: 6.25 mg/kg/injection, schedule: Q04DX002 (ip), vehicle: saline with Tween-80 96 % of control | endpoint: mean survival time, dose: 12.5 mg/kg/injection, schedule: Q04DX002 (ip), vehicle: saline with Tween-80 114 % of control | endpoint: mean survival time, dose: 25.0 mg/kg/injection, schedule: Q04DX002 (ip), vehicle: saline with Tween-80 87 % of control and 93 % of control

C=CC(=O)c1ccccc1
inactive: [6] 111 % of control

BrCc1cccc2cccnc12
inactive: [1] 88 % of control | endpoint: median survival time, dose: 50.0 mg/kg/injection, schedule: Q04DX003 (ip), vehicle: saline with Tween-80 88 % of control | endpoint: median survival time, dose: 100.0 mg/kg/injection, schedule: Q04DX003 (ip), vehicle: saline with Tween-80 88 % of control

Oc1cc2c(cc1O)-c1[nH]ncc1CC2
inactive: [6] 115 % of control | endpoint: mean survival time, dose: 200.0 mg/kg/injection, schedule: Q04DX002 (ip), vehicle: saline with Tween-80 103 % of control | endpoint: mean survival time, dose: 400.0 mg/kg/injection, schedule: Q04DX002 (ip), vehicle: saline with Tween-80 98 % of control

C=C1C(=O)OC2CCCCC3OC3C12 (stereo not drawn)
inactive: endpoint: mean survival time, dose: 25.0 mg/kg/injection, schedule: Q01DX001 (ip), vehicle: saline 108 % of control | endpoint: mean survival time, dose: 50.0 mg/kg/injection, schedule: Q01DX001 (ip), vehicle: saline 96 % of control | [3] 91 % of control

CCC(C)C(C(=O)O)C(=O)O (stereo not drawn)
inactive: endpoint: mean survival time, dose: 75.0 mg/kg/injection, schedule: Q01DX001 (ip), vehicle: saline 100 % of control | endpoint: mean survival time, dose: 150.0 mg/kg/injection, schedule: Q01DX001 (ip), vehicle: saline 100 % of control | endpoint: mean survival time, dose: 300.0 mg/kg/injection, schedule: Q01DX001 (ip), vehicle: saline 102 % of control

CC(Cc1ccc(O)cc1)NCC(O)c1ccc(O)c(O)c1 (stereo not drawn)
inactive: endpoint: mean survival time, dose: 12.5 mg/kg/injection, schedule: Q01DX009 (ip), vehicle: saline with Tween-80 102 % of control and 104 % of control | endpoint: mean survival time, dose: 25.0 mg/kg/injection, schedule: Q01DX009 (ip), vehicle: saline with Tween-80 103 % of control and 104 % of control | [5] 105 % of control and 111 % of control | [1] 108 % of control and 111 % of control | [2] 103 % of control and 111 % of control | [4] 113 % of control and 112 % of control
